Measurements: patent US11370798B2 (Vertex Pharmaceuticals Incorporated, priority 2012, dated 2022)

tested on: HCT116 colorectal cancer cells; assay: Cisplatin sensitization assay (96 h cell viability MTS); type: cell-based; details: compound and Cisplatin added simultaneously, Cisplatin sensitization value;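 further: Test-compound concentration that lowers the Cisplatin IC50 by a set fold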
Procedure, shortened: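 Viability read by MTS (1 h at 37° C) after 96 h co-exposure at 37° C, 5% CO2. Test compound and cisplatin were dosed simultaneously in a full concentration matrix, each 2-fold serially diluted from 10 μM final; sensitization values binned in μM.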

SMILES | Cisplatin Sensitization Assay
Nc1nn2cc(F)cnc2c1C(=O)Nc1cnccc1N1CCN(C2COC2)C2CC21 (stereo not shown) [I-N-112, 2-amino-6-fluoro-N-(4-(5-(oxetan-3-yl)-2,5-diazabicyclo[4.1.0]heptan-2-yl)pyridin-3-yl)pyrazolo[1,5-a]pyrimidine-3-carboxamide] | + (Cisplatin sensitization value>0.2 μM but <5 μM)
Cn1ccc(-c2ccncc2NC(=O)c2c(N)nn3cc(F)cnc23)n1 [I-C-68, 2-amino-6-fluoro-N-(4-(1-methyl-1H-pyrazol-3-yl)pyridin-3-yl)pyrazolo[1,5-a]pyrimidine-3-carboxamide] | + (Cisplatin sensitization value>0.2 μM but <5 μM)
Nc1nn2cc(Cl)cnc2c1C(=O)Nc1cncc(F)c1N1CCN(C2COC2)CC1 [I-N-117, 2-amino-6-chloro-N-(5-fluoro-4-(4-(oxetan-3-yl)piperazin-1-yl)pyridin-3-yl)pyrazolo[1,5-a]pyrimidine-3-carboxamide] | +++ (Cisplatin sensitization value of <0.02 μM)
Nc1nn2cc(Cl)cnc2c1C(=O)Nc1cnccc1O[C@@H]1CCNC1 [I-O-77, (R)-2-amino-6-chloro-N-(4-(pyrrolidin-3-yloxy)pyridin-3-yl)pyrazolo[1,5-a]pyrimidine-3-carboxamide] | ++ (Cisplatin sensitization value>0.02 μM but <0.2 μM)
CN1CCC(C(=O)N2CCN(c3c(F)cncc3NC(=O)c3c(N)nn4cc(F)cnc34)CC2)CC1 [I-N-128, 2-amino-6-fluoro-N-(5-fluoro-4-(4-(1-methylpiperidine-4-carbonyl)piperazin-1-yl)pyridin-3-yl)pyrazolo[1,5-a]pyrimidine-3-carboxamide] | +++ (Cisplatin sensitization value of <0.02 μM)
CN1CCN(CC2CCN(c3c(F)cncc3NC(=O)c3c(N)nn4cc(F)cnc34)CC2)CC1=O [I-N-171, 2-amino-6-fluoro-N-(5-fluoro-4-(4-((4-methyl-3-oxopiperazin-1-yl)methyl)piperidin-1-yl)pyridin-3-yl)pyrazolo[1,5-a]pyrimidine-3-carboxamide] | +++ (Cisplatin sensitization value of <0.02 μM)
Cc1nc(C(=O)N2CCN(C)CC2)ccc1-c1ccncc1NC(=O)c1c(N)nn2cc(F)cnc12 [I-C-39, 2-amino-6-fluoro-N-(2-methyl-6-(4-methylpiperazine-1-carbonyl)-[3,4′-bipyridin]-3′-yl)pyrazolo[1,5-a]pyrimidine-3-carboxamide] | +++ (Cisplatin sensitization value of <0.02 μM)
COc1cncc(NC(=O)c2c(N)nn3cc(F)cnc23)c1-c1cncn1C [I-C-81, 2-amino-6-fluoro-N-(5-methoxy-4-(1-methyl-1H-imidazol-5-yl)pyridin-3-yl)pyrazolo[1,5-a]pyrimidine-3-carboxamide] | +++ (Cisplatin sensitization value of <0.02 μM)
Nc1nn2cc(F)cnc2c1C(=O)Nc1cncc(F)c1N1CCC(C(=O)N2CCOCC2)CC1 [I-G-36, 2-amino-6-fluoro-N-(5-fluoro-4-(4-(morpholine-4-carbonyl)piperidin-1-yl)pyridin-3-yl)pyrazolo[1,5-a]pyrimidine-3-carboxamide] | +++ (Cisplatin sensitization value of <0.02 μM)
N#CCc1cnc2c(C(=O)Nc3cnccc3OC3CCOCC3)c(N)nn2c1 [I-O-30, 2-amino-6-(cyanomethyl)-N-(4-((tetrahydro-2H-pyran-4-yl)oxy)pyridin-3-yl)pyrazolo[1,5-a]pyrimidine-3-carboxamide] | +++ (Cisplatin sensitization value of <0.02 μM)
Nc1nn2cc(F)cnc2c1C(=O)Nc1cnccc1N1CCOCC1 [I-N-141, 2-amino-6-fluoro-N-(4-morpholinopyridin-3-yl)pyrazolo[1,5-a]pyrimidine-3-carboxamide] | +++ (Cisplatin sensitization value of <0.02 μM)
Nc1nn2cc(F)cnc2c1C(=O)Nc1cnccc1C1CCN(C(=O)C2CC2)CC1 [I-C-70, 2-amino-N-(4-(1-(cyclopropanecarbonyl)piperidin-4-yl)pyridin-3-yl)-6-fluoropyrazolo[1,5-a]pyrimidine-3-carboxamide] | +++ (Cisplatin sensitization value of <0.02 μM)
Nc1nn2cc(F)cnc2c1C(=O)Nc1cnccc1OC1CCN(C2COC2)CC1 [Compound I-0-11, 2-amino-6-fluoro-N-(4-((1-(oxetan-3-yl)piperidin-4-yl)oxy)pyridin-3-yl)pyrazolo[1,5-a]pyrimidine-3-carboxamide] | +++ (Cisplatin sensitization value of <0.02 μM)
Nc1nn2cc(F)cnc2c1C(=O)Nc1cnccc1N1CCC(S(=O)(=O)C2COC2)CC1 [I-N-200, 2-amino-6-fluoro-N-(4-(4-(oxetan-3-ylsulfonyl)piperidin-1-yl)pyridin-3-yl)pyrazolo[1,5-a]pyrimidine-3-carboxamide] | +++ (Cisplatin sensitization value of <0.02 μM)
Nc1nn2cc(F)cnc2c1C(=O)Nc1cncc(F)c1N1CCN(C2CCOCC2)CC1 [I-N-121, 2-amino-6-fluoro-N-(5-fluoro-4-(4-(tetrahydro-2H-pyran-4-yl)piperazin-1-yl)pyridin-3-yl)pyrazolo[1,5-a]pyrimidine-3-carboxamide] | +++ (Cisplatin sensitization value of <0.02 μM)
Nc1nn2cc(F)cnc2c1C(=O)Nc1cnccc1N1CCCCCC1 [I-N-264, 2-amino-N-(4-(azepan-1-yl)pyridin-3-yl)-6-fluoropyrazolo[1,5-a]pyrimidine-3-carboxamide] | + (Cisplatin sensitization value>0.2 μM but <5 μM)
CC(C)N1CCN(c2ccncc2NC(=O)c2c(N)nn3cc(F)cnc23)CC1 [I-N-4, 2-amino-6-fluoro-N-(4-(4-isopropylpiperazin-1-yl)pyridin-3-yl)pyrazolo[1,5-a]pyrimidine-3-carboxamide] | +++ (Cisplatin sensitization value of <0.02 μM)
CC1(N2CCN(c3ccncc3NC(=O)c3c(N)nn4cc(F)cnc34)CC2)COC1 [I-N-62, 2-amino-6-fluoro-N-(4-(4-(3-methyloxetan-3-yl)piperazin-1-yl)pyridin-3-yl)pyrazolo[1,5-a]pyrimidine-3-carboxamide] | ++ (Cisplatin sensitization value>0.02 μM but <0.2 μM)
CN(C)CCOc1ccncc1NC(=O)c1c(N)nn2cc(Cl)cnc12 [I-O-48, 2-amino-6-chloro-N-(4-(2-(dimethylamino)ethoxy)pyridin-3-yl)pyrazolo[1,5-a]pyrimidine-3-carboxamide] | ++ (Cisplatin sensitization value>0.02 μM but <0.2 μM)
CN1CCN(C(=O)[C@H]2CC[C@@H](Oc3ccncc3NC(=O)c3c(N)nn4cc(F)cnc34)CC2)CC1 [I-O-19, 2-amino-6-fluoro-N-(4-(((1s,4s)-4-(4-methylpiperazine-1-carbonyl)cyclohexyl)oxy)pyridin-3-yl)pyrazolo[1,5-a]pyrimidine-3-carboxamide] | +++ (Cisplatin sensitization value of <0.02 μM)
CN1CCN(c2cc(Cl)ncc2NC(=O)c2c(N)nn3cc(Cl)cnc23)CC1 [I-N-52, 2-amino-6-chloro-N-(6-chloro-4-(4-methylpiperazin-1-yl)pyridin-3-yl)pyrazolo[1,5-a]pyrimidine-3-carboxamide] | ++ (Cisplatin sensitization value>0.02 μM but <0.2 μM)
CN1CCN(C(=O)C2CCN(c3c(F)cncc3NC(=O)c3c(N)nn4cc(Cl)cnc34)CC2)CC1 [I-G-5, 2-amino-6-chloro-N-(5-fluoro-4-(4-(4-methylpiperazine-1-carbonyl)piperidin-1-yl)pyridin-3-yl)pyrazolo[1,5-a]pyrimidine-3-carboxamide] | +++ (Cisplatin sensitization value of <0.02 μM)
Nc1nn2cc(F)cnc2c1C(=O)Nc1cncc(Cl)c1N1CCC(C(=O)N2CCN3CCC2CC3)CC1 [I-G-66, N-(4-(4-(1,4-diazabicyclo[3.2.2]nonane-4-carbonyl)piperidin-1-yl)-5-chloropyridin-3-yl)-2-amino-6-fluoropyrazolo[1,5-a]pyrimidine-3-carboxamide] | +++ (Cisplatin sensitization value of <0.02 μM)
Nc1nn2cc(F)cnc2c1C(=O)Nc1cnccc1N1CCN(S(=O)(=O)C2CCOC2)CC1 (stereo not shown) [I-N-179, 2-amino-6-fluoro-N-(4-(4-((tetrahydrofuran-3-yl)sulfonyl)piperazin-1-yl)pyridin-3-yl)pyrazolo[1,5-a]pyrimidine-3-carboxamide] | +++ (Cisplatin sensitization value of <0.02 μM)
Nc1nn2cc(F)cnc2c1C(=O)Nc1cnccc1N1CCC(C(=O)N2CC3(CCO3)C2)CC1 [I-G-90, N-(4-(4-(1-oxa-6-azaspiro[3.3]heptane-6-carbonyl)piperidin-1-yl)pyridin-3-yl)-2-amino-6-fluoropyrazolo[1,5-a]pyrimidine-3-carboxamide] | +++ (Cisplatin sensitization value of <0.02 μM)
Nc1nn2cc(F)cnc2c1C(=O)Nc1cncc(C2CC2)c1N1CCN(C2COC2)CC1 [I-N-32, 2-amino-N-(5-cyclopropyl-4-(4-(oxetan-3-yl)piperazin-1-yl)pyridin-3-yl)-6-fluoropyrazolo[1,5-a]pyrimidine-3-carboxamide] | ++ (Cisplatin sensitization value>0.02 μM but <0.2 μM)
Nc1nn2cc(Cl)cnc2c1C(=O)Nc1cnccc1N1CCC(N2CCOCC2)CC1 [I-N-104, 2-amino-6-chloro-N-(4-(4-morpholinopiperidin-1-yl)pyridin-3-yl)pyrazolo[1,5-a]pyrimidine-3-carboxamide] | +++ (Cisplatin sensitization value of <0.02 μM)
Nc1nn2cc(F)cnc2c1C(=O)Nc1cnccc1OC1CC[S+]([O-])CC1 (stereo not shown) [I-O-44, 2-amino-6-fluoro-N-(4-((1-oxidotetrahydro-2H-thiopyran-4-yl)oxy)pyridin-3-yl)pyrazolo[1,5-a]pyrimidine-3-carboxamide] | ++ (Cisplatin sensitization value>0.02 μM but <0.2 μM)
